# Reference: US20210255193A1, “LYSINE REACTIVE PROBES AND USES THEREOF” (The Scripps Research Institute, priority 2017, published 2021)
# Columns and labels:
# Experiment in all cases: competitive isoTOP-ABPP
# Format in all cases: binding
# [1] = target: T1, MAP1LC3B Microtubule-associated proteins 1A/1B light chain (Homo sapiens, UniProt Q9GZQ8); details: for isoTOP-ABPP ratio (R) at liganded lysine Q9GZQ8_K51: 50 uM, in vitro, sol, 231; for isoTOP-ABPP ratio, lysine Q9GZQ8_K51: 50 uM_231_sol_in vitro
# T1 construct: isoTOP-ABPP experiments performed in cell lysates (in vitro); endogenous in cells; host or cells: soluble proteome of human cancer cell lines (MDA-MB-231; Ramos and Jurkat also prepared)
# Procedure, shortened: (§1)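 Competition format: fragment (50 μM activated ester, 100 μM guanidinylating agent) versus vehicle in lysate, then lysine probe STP-alkyne at 0.1 mM for 1 h. Quantitation by light/heavy TEV-tag MS1 peak areas, reported as R.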
# [2] = target: T2, POLR2L DNA-directed RNA polymerases I, II, and III subunit (Homo sapiens, UniProt P62875); details: for isoTOP-ABPP ratio (R) at liganded lysine P62875_K67: 50 uM, in vitro, sol, 231; for isoTOP-ABPP ratio, lysine P62875_K67: 50 uM_231_sol_in vitro
# T2 construct: isoTOP-ABPP experiments performed in cell lysates (in vitro); endogenous in cells; host or cells: soluble proteome of human cancer cell lines (MDA-MB-231, Ramos, Jurkat)
# Method: In vitro covalent fragment treatment for isoTOP-ABPP. All compounds were made up as solutions in DMSO (100×) and were used at a final concentration of 50 μM for activated esters and 100 μM for guanidinylating agents. For each profiling sample, 0.5 ml of lysate was treated with 5 μl of the 100× compound stock solution or 5 μl of DMSO. Samples were treated with activated esters for
# STP-alkyne labeling and click chemistry. For concentration-dependent reactivity measurements by isoTOP-ABPP, 0.5 ml proteome aliquots were treated at ambient temperature with 1 mM STP-alkyne 1 (5 μl of 100 mM stock in DMSO) and 0.1 mM STP alkyne 1 (5 μl of 10 mM stock in DMSO), respectively. For competitive isoTOP-ABPP, after in vitro fragment treatment (detailed above), the samples were labeled for 1 h at ambient temperature with 0.1 mM STP-alkyne 1 (5 μl of 10 mM stock in DMSO). Samples were conjugated by copper-mediated azide-alkyne cycloaddition (CuAAC) to either the light (1 mM STP-alkyne or fragment treated) or heavy (0.1 mM STP-alkyne or DMSO treated) TEV tags (10 μl of 5 mM stocks in DMSO, final concentration=100 μM) using tris(2-carboxyethyl)phosphine hydrochloride
# R value calculation and processing. The ratios of light and heavy MS1 peaks for each unique peptide were quantified with a CIMAGE software using default parameters (3 MS1 acquisitions per peak and signal to noise threshold set to 2.5). For reactivity measurements by isoTOP-ABPP, the R value was calculated from the ratio of MS1 peak areas, comparing the 1 mM STP alkyne sample (light TEV tag) with the 0.1 mM STP alkyne sample (heavy TEV tag). For competitive isoTOP-ABPP, the R value was calculated from the ratio of MS1 peak areas, comparing the DMSO treated sample (heavy TEV tag) with the compound treated sample (light TEV tag). […] Ratios for unique peptide entries are calculated for each experiment; overlapping peptides with the same modified lysine (for example, different charge states, MudPIT chromatographic steps or tryptic termini) are grouped together and the median ratio is reported as the final ratio (R). The peptide ratios reported by CIMAGE were further filtered to ensure the removal or correction of low-quality ratios in each individual data set. The quality filters applied were the following: removal of half tryptic peptides; for ratios with high standard deviations from the median (90% of the median or above) the lowest ratio was taken instead of the median; removal of peptides with R=20 and only a single MS2 event triggered during the elution of the parent ion; manual annotation of all the peptides with ratios of 20, removing any peptides with low quality elution profiles that remained after the previous curation steps (only done for competitive isoTOP-ABPP).
# Cross-data processing for fragment screening. For compound treated samples, biological replicates of the same condition were averaged, if the standard deviation was below 60% of the mean; otherwise, for lysines with at least one R value <4 for a particular compound, the lowest value of the ratio set was taken. For lysines, where all R values for a particular compound were ≥4, the average was reported. For peptides containing several possible modified lysines, the lysine with the highest number of quantification events was used for analysis and the remaining, redundant peptides were reported as alternative modification sites. Peptides included in the aggregate dataset (those used for further bioinformatics and statistical analyses) were required to have been quantified in 2 experiments for competitive isoTOP-ABPP. Lysines were categorized as liganded, if they had at least one ratio R≥4 (hit fragments). For liganded lysines with R=20 for all liganding events, lysines were required to have been quantified with R=20 in two separate experiments and were further required to have been quantified with R<20 in one additional experiment.
# [3] = target: T3, ACBD3 Golgi resident protein GCP60 (Homo sapiens, UniProt Q9H3P7); details: for isoTOP-ABPP ratio (R) at liganded lysine Q9H3P7_K117: 50 uM, in vitro, sol, 231; for isoTOP-ABPP ratio, lysine Q9H3P7_K117: 50 uM_231_sol_in vitro
# T3 construct: isoTOP-ABPP experiments performed in cell lysates (in vitro); endogenous in cells; host or cells: soluble proteome of human cancer cell lines (MDA-MB-231; Ramos and Jurkat also prepared)
# T3 sequence (Q9H3P7 1-528): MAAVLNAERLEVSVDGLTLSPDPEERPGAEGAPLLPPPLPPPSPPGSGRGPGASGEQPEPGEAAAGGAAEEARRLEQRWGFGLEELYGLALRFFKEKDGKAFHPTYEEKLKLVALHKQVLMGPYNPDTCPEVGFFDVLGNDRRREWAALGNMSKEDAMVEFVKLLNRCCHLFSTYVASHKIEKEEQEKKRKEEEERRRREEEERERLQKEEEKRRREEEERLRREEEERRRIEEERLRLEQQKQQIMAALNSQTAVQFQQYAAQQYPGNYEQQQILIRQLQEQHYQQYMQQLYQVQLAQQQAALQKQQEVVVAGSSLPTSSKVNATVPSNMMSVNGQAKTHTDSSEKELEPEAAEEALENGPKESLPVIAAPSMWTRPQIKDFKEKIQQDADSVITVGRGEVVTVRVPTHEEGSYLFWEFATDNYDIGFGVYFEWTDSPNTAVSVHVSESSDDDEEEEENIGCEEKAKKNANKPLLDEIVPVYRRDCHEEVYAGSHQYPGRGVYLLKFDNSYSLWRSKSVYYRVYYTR
# Procedure, shortened: as §1
# [4] = target: T4, SRP54 Signal recognition particle 54 kDa protein (Homo sapiens, UniProt P61011); details: for isoTOP-ABPP ratio (R) at liganded lysine P61011_K81: 50 uM, in vitro, sol, 231; for isoTOP-ABPP ratio, lysine P61011_K81: 50 uM_231_sol_in vitro
# T4 construct: isoTOP-ABPP experiments performed in cell lysates (in vitro); endogenous in cells; host or cells: soluble proteome of human cancer cell lines (MDA-MB-231, Ramos, Jurkat)
# Procedure, shortened: as §1
# [5] = target: T5, PSME3 Proteasome activator complex subunit 3 (Homo sapiens, UniProt P61289); details: for isoTOP-ABPP ratio (R) at liganded lysine P61289_K12 / isoTOP-ABPP ratio (R) at liganded lysine P61289_K237: 50 uM, in vitro, sol, 231; for isoTOP-ABPP ratio, lysine P61289_K12 / isoTOP-ABPP ratio, lysine P61289_K237: 50 uM_231_sol_in vitro
# T5 construct: isoTOP-ABPP experiments performed in cell lysates (in vitro); endogenous in cells; host or cells: soluble proteome of human cancer cell lines (MDA-MB-231, Ramos, Jurkat)
# Procedure, shortened: as §1
# [6] = target: T6, NUDT2 Bis(5-nucleosyl)-tetraphosphatase (Homo sapiens, UniProt P50583); details: for isoTOP-ABPP ratio (R) at liganded lysine P50583_K89: 50 uM, in vitro, sol, 231; for isoTOP-ABPP ratio, lysine P50583_K89: 50 uM_231_sol_in vitro, possible other lysine P50583_K87
# T6 construct: isoTOP-ABPP experiments performed in cell lysates (in vitro); endogenous in cells
# Procedure, shortened: as §1
# T5 sequence (P61289 whole entry, one chain of several): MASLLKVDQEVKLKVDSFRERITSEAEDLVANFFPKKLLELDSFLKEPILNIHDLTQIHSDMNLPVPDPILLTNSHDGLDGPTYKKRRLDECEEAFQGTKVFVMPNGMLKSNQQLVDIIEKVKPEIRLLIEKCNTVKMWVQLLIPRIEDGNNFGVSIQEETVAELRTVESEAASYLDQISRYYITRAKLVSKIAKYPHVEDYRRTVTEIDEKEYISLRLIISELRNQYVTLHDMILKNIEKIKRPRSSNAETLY
# T4 sequence (P61011 whole entry): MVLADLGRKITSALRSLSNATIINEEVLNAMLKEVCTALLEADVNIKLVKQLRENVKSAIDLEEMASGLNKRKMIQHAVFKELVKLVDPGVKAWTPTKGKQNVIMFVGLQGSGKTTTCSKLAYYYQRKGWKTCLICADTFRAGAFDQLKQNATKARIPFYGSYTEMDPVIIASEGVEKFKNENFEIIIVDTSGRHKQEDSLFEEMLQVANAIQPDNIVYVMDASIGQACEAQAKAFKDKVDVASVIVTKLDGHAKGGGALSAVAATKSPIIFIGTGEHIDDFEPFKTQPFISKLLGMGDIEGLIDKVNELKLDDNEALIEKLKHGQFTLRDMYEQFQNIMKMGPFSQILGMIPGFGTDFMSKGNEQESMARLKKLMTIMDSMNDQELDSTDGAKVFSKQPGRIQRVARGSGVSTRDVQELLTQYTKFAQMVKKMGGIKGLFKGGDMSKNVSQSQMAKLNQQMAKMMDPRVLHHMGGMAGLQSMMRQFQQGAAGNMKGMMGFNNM
# T6 sequence (P50583 whole entry): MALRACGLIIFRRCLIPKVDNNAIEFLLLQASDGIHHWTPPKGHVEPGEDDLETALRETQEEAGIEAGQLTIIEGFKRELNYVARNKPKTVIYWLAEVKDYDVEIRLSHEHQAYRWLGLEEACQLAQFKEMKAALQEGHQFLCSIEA
Compound,isoTOP-ABPP ratio (R) at liganded lysine Q9GZQ8_K51 [1],isoTOP-ABPP ratio (R) at liganded lysine P62875_K67 [2],isoTOP-ABPP ratio (R) at liganded lysine Q9H3P7_K117 [3],isoTOP-ABPP ratio (R) at liganded lysine P61011_K81 [4],isoTOP-ABPP ratio (R) at liganded lysine P61289_K12 [5],isoTOP-ABPP ratio (R) at liganded lysine P61289_K237 [5],isoTOP-ABPP ratio (R) at liganded lysine P50583_K89 [6],"isoTOP-ABPP ratio, lysine Q9GZQ8_K51 [1]","isoTOP-ABPP ratio, lysine P62875_K67 [2]","isoTOP-ABPP ratio, lysine Q9H3P7_K117 [3]","isoTOP-ABPP ratio, lysine P61011_K81 [4]","isoTOP-ABPP ratio, lysine P61289_K12 [5]","isoTOP-ABPP ratio, lysine P61289_K237 [5]","isoTOP-ABPP ratio, lysine P50583_K89 [6]"
"O=C(Oc1ccc([N+](=O)[O-])cc1[N+](=O)[O-])c1ccc(-c2ccccc2)cc1 [fragment 37, 2,4-Dinitrophenyl [1,1′-biphenyl]-4-carboxylate]",0.9,0.9,0.9,0.9,0.9,1.0,1.4,,,,,,,
"O=C(Oc1ccc([N+](=O)[O-])cc1[N+](=O)[O-])c1ccc(Oc2ccccc2)cc1 [fragment 39, 2,4-Dinitrophenyl 4-phenoxybenzoate]",0.9,0.9,0.9,0.9,0.9,0.9,2.4,,,,,,,
"CC(C)(C)OC(=O)NCCCC(=O)Oc1ccc([N+](=O)[O-])cc1[N+](=O)[O-] [fragment 41, 2,4-Dinitrophenyl 4-((tert-butoxycarbonyl)amino)butanoate]",0.9,2.6,1.2,1.0,3.5,2.2,1.0,,,,,,,
"O=C(Oc1ccc([N+](=O)[O-])cc1[N+](=O)[O-])C(c1ccccc1)(c1ccccc1)c1ccccc1 [fragment 42, 2,4-Dinitrophenyl 2,2,2-triphenylacetate]",0.9,1.0,1.0,0.9,0.9,0.9,1.0,,,,,,,
"O=C(CCc1ccc2c(c1)OCO2)Oc1ccc([N+](=O)[O-])cc1[N+](=O)[O-] [fragment 45, 2,4-Dinitrophenyl 3-(benzo[d][1,3]dioxol-5-yl)propanoate]",,,,,,,,1.0,2.8,1.1,1.0,2.0,1.6,1.7
"O=C(Oc1c(F)c(F)c(C(F)(F)F)c(F)c1F)c1cc(C(F)(F)F)cc(C(F)(F)F)c1 [fragment 47, 2,3,5,6-Tetrafluoro-4-(trifluoromethyl)phenyl 3,5-bis(trifluoromethyl)benzoate]",,,,,,,,0.9,1.0,1.0,0.9,1.1,0.9,1.0
